Source: paper PMC2362091, “Expression of V1A and GRP receptors leads to cellular transformation and increased sensitivity to substance-P analogue-induced growth inhibition” (British Journal of Cancer, 2005)
In brackets after ≈: the same amount, converted by molar mass. Read-outs that look alike come from different tables or passages of the source. Square brackets hold non-standard residues; d marks the D form. Peptide text beside a SMILES is read from it. NMeF = CN[C@@H](Cc1ccccc1)C(=O)O

Key:
[1] = system: CHO-V1Ar cells; test: cells; assay type: cell-based
Description: (§1) In some assays, MTT (3-[4,5-dimethylthiazol-2yl]-2,5-diphenyl tetrazolium bromide) formazan production (Sigma) was used to measure proliferation as per the manufacturer's instructions.
(§2) Figure 4 Effect of neuropeptide on chemosensitivity. Wild-type CHO-K1 cells (left) and cells expressing the V1A (middle) or GRP (right) receptor were plated at a density of 1e^4 cells per well of a 96-well tissue culture plate in DMEM with 10% FCS and incubated overnight 37°C. […] Cell viability was assessed by MTT staining.

[2] = system: untransfected CHO-K1 cells; test: Intracellular Ca2+ (FURA-2), untransfected cells; assay type: cell-based; conditions: data not shown
[3] = system: ERK phosphorylation in untransfected CHO cells; test: ERK phosphorylation (Western blot), untransfected CHO cells; assay type: cell-based; conditions: data not shown
Description: (§3) Quiescent cell cultures in six-well plates were treated as described in figure legends and lysed at 4°C in 0.25 ml lysis buffer containing; 25 mM HEPES pH 7.4, 0.3 M NaCl, 1.5 mM MgCl2, 0.2 mM EDTA, 0.5% Triton X-100, 20 mM β-glycerphosphate, 0.5 mM dithiothreitol, 1 mM sodium orthovanadate and protease inhibitors (Boehringer Mannheim, Sussex, UK; prepared as per the manufacturer's instructions). Lysates were clarified by centrifugation, equilibrated for protein using BCA protein assay reagent (Perbio Science, Cheshire, UK) and denatured by boiling (5 min) in SDS–PAGE loading buffer. In all, 20 μl lysate/lane was resolved on 12% SDS–PAGE gels and electroblotted onto nitrocellulose membranes. Membranes were blocked in 3% bovine serum albumin in PBS containing 0.05% Tween-20. ERK1/2 phosphorylation was determined using 1 : 1000 dilution of the primary antibody followed by the appropriate HRP-labelled goat IgG (DAKO, UK) diluted 1 : 5000. Bands were visualized using enhanced chemiluminescence (ECL plus, Amersham) and quantified using a phosphor imager (Storm).
In this study, ERK activation was measured in CHO cells expressing GRP or V1A receptors in response to the appropriate neuropeptide or substance-P analogue. Activation was estimated in immunoblots from stimulated lysates using a phosphorylation state-specific antibody. […]

[4] = target: T1, human V1A receptor (Homo sapiens, UniProt P37288); test: Intracellular Ca2+ (FURA-2), V1A-expressing CHO cells; assay type: cell-based; conditions: in absence of AVP
T1 construct: CHO-K1 cells were transfected with full-length human GRP receptor or human V1A receptor; expressed in transfected cells
T1 sequence (P37288 whole entry): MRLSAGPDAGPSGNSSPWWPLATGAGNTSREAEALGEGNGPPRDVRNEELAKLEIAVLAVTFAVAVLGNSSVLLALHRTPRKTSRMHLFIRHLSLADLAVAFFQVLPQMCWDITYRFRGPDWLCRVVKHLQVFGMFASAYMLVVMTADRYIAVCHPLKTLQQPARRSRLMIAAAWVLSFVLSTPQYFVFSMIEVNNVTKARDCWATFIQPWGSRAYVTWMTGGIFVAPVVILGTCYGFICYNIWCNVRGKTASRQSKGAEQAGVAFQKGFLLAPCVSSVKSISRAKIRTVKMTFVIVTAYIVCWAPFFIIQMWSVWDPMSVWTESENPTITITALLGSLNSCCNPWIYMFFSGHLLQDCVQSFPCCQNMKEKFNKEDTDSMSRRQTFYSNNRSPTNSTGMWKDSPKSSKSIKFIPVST
Description: (§8) Cells were trypsinised and loaded with fura-2-tetraacetoxymethylester AME (FURA-2-AM, 1 μM) in calcium-free Hank's balanced salt solution for 10 min at 37°C. The cells were pelleted and resuspended in 2 ml of Hank's balanced salt solution containing 1.8 mM CaCl2. Fluorescence was recorded in a fluorescence spectrophotometer (Perkin Elmer). Alternate dual wavelength excitation at 380 and 410 nm allowed ratiometric analysis of bound and unbound FURA-2AM when measured at 505 nm. [Ca^2+] was calculated according to the equation [Ca^2+]=K(F−Fmin)/(Fmax−F), where F is the ratio of the unknown sample, Fmax is the ratio after the addition of 0.1% Triton X-100 and Fmin is the ratio after Ca^2+ chelation with 10 mM EGTA. K is the dissociation constant for Fura-2, which is 224 nM.
(§9) Quiescent GRP (A, B) or V1A (C, D) receptor expressing CHO cells were incubated with FURA-2AM for 15 min at 37°C and ratiometric fluorescence monitored at 37°C. […] Concentration–response curves to vasopressin were carried out in control cells and in cells treated with 1 or 10 μM SP-D (C) or SP-G (D). Results are expressed as % maximum control response to neuropeptide and represent the mean±s.e.m. of four experiments.

[5] = target: T2, human GRP receptor (Homo sapiens, UniProt P30550); test: Intracellular Ca2+ (FURA-2), CHO-GRP cells; assay type: cell-based; conditions: in absence of GRP
T2 construct: CHO-K1 cells were transfected with full-length human GRP receptor or human V1A receptor; expressed in transfected cells
T2 sequence (P30550 whole entry): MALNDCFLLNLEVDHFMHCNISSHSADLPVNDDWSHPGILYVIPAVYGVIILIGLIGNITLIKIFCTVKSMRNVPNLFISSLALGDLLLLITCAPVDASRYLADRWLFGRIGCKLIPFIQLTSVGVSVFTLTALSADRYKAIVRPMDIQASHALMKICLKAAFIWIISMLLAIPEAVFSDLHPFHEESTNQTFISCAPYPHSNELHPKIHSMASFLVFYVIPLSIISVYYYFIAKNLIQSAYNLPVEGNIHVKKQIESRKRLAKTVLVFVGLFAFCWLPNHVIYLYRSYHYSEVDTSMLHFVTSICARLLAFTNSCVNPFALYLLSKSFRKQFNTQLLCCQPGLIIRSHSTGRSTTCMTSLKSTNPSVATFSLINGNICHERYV
Description: as §8, §9

[6] = system: V1AR-transfected CHO-K1 cells; test: Aggregation assay (anchorage-independent growth), V1AR-transfected cells; assay type: cell-based; conditions: low adhesion plates, 5% FCS, 7 days, viable cells counted
Description: (§4) CHO-K1 cells were suspended in DMEM in the presence of 5% FCS and seeded into low adhesion tissue culture plates on top of a layer (1 ml) of 0.5% agar. […] Cells were maintained in culture for 7 days briefly trypsinised to disaggregate clusters and viable cells counted.
(§5) Figure 3 Effect of SP-D and SP-G on clonal growth. (A) Cells were grown in 0.3% agar with 1% FCS for 8 days in the presence or absence (open bar) of 30 μM SP-D (black bar) or SP-G (grey bar). […] Aggregation assay. (B) Wild-type, GRPR-transfected and V1AR-transfected CHO-K1 cells were plated into low adhesion tissue culture plates on top of a layer of 0.5% agar in DMEM containing 5% FCS at a density of 5 × 10^4 ml^−1 in the presence of varying concentrations of SP-G. Cells were maintained in culture for 7 days, briefly trypsinised to dissagregate clusters and viable cells counted by propidium iodide exclusion.

[7] = system: GRPR-transfected CHO-K1 cells; test: Aggregation assay (anchorage-independent growth), GRPR-transfected cells; assay type: cell-based; conditions: low adhesion plates, 5% FCS, 7 days, viable cells counted
Description: as §4, §5

[8] = system: vector control CHO-K1 cells; test: Clonogenic assay in semisolid media, vector control cells; assay type: cell-based; conditions: 30 μM, 0.3% agar, 1% FCS, 8 days
Description: (§6) CHO-K1 (2x10^4) viable cells were mixed with DMEM containing 0.3% agarose in the presence or absence of mediators and layered over a solid base of 0.5% agarose in DMEM in 35 mm plastic dishes. The cultures were incubated at 37°C for 1–10 days, and then stained with 1 mg ml^−1 nitro-blue tetrazolium (NBT, Sigma) overnight at 37°C. Colonies from 10 separate fields were counted using a microscope with a × 4 objective. Cloning efficiency is calculated as the percentage of original number of seeded cells forming colonies of >6 cells.
as §5

[9] = system: V1A receptor expressing CHO-K1 cells; test: Clonogenic assay in semisolid media, V1A receptor expressing cells; assay type: cell-based; conditions: 30 μM, 0.3% agar, 1% FCS, 8 days
Description: as §6, §5

[10] = system: ERK phosphorylation in GRP receptor expressing CHO cells; test: ERK phosphorylation (Western blot), GRP receptor expressing CHO cells; assay type: cell-based; conditions: for maximal stimulation of ERK: at 50 μM
Description: as §3
(§7) In this study, ERK activation was measured in CHO cells expressing GRP or V1A receptors in response to the appropriate neuropeptide or substance-P analogue. Activation was estimated in immunoblots from stimulated lysates using a phosphorylation state-specific antibody. Lysates from quiesced cells stimulated for […] with either neuropeptide or SP-D or SP-G were separated on 12% gels and blotted for pERK2 or total ERK1/2.
Figure 6 (A) ERK phosphorylation by neuropeptides. Quiescent GRP (left) or V1A (right) receptor expressing CHO cells were stimulated for 5 min with neuropeptide at the indicated concentrations. […] Representative Western blots are shown. Bar graphs represent the mean optical density (mean±s.e.m.) of four separate experiments. (B) ERK phosphorylation by substance-P analogues. Quiescent GRP (left) or V1A (right) receptor expressing CHO cells were stimulated for 5 min with SP-D (filled bars) or SP-G (open bars) at the indicated concentrations. […] Representative Western blots are shown. Bar graphs represent the mean optical density (mean±s.e.m.) of four separate experiments.
Figure 7 Effect of pertussis toxin (PTX) on ERK phosphorylation. Confluent cultures of GRP (left) or V1A (right) receptor expressing CHO cells were quiesced overnight in the presence or absence of 100 ng ml^−1 pertussis toxin. Cells were stimulated for 5 min with 30 μM SP-D or SP-G or 1 nM neuropeptide as indicated. […] Representative Western blots are shown.

[11] = system: GRP receptor expressing CHO-K1 cells; test: Clonogenic assay in semisolid media, GRP receptor expressing cells; assay type: cell-based; conditions: 30 μM, 0.3% agar, 1% FCS, 8 days
Description: as §6, §5

[12] = system: ERK phosphorylation in V1A receptor expressing CHO cells; test: ERK phosphorylation (Western blot), V1A receptor expressing CHO cells; assay type: cell-based; conditions: for stimulation of ERK: at 50 μM
Description: as §3, §7
Figure 6 (A) ERK phosphorylation by neuropeptides. Quiescent GRP (left) or V1A (right) receptor expressing CHO cells were stimulated for 5 min with neuropeptide at the indicated concentrations. […] Representative Western blots are shown. Bar graphs represent the mean optical density (mean±s.e.m.) of four separate experiments. (B) ERK phosphorylation by substance-P analogues. Quiescent GRP (left) or V1A (right) receptor expressing CHO cells were stimulated for 5 min with SP-D (filled bars) or SP-G (open bars) at the indicated concentrations. […] Representative Western blots are shown. […]

[13] = target: T1, human V1A receptor; test: Receptor binding, [125I]-AVP, CHO-K1-V1Ar cells; conditions: V1A over GRP receptor, from Ki
Description: CHO-K1 cells were maintained in DMEM supplemented with 10% (v v^−1) foetal bovine serum (heat-inactivated at 57°C for 1 h) 50 U ml^−1 penicillin, 50 μg ml^−1 streptomycin and 5 μg ml^−1 L-glutamine in a humidified atmosphere of 5% CO2:95% air at 37°C. CHO-K1 cells were transfected with full-length human GRP receptor or human V1A receptor using lipofectamine plus (Invitrogen) as per the manufacturer's instructions. Stable cell cultures were maintained in the presence of 400 μg ml^−1 G418-sulphate.
The binding parameters Kd and Bmax were calculated from competition binding isotherms with unlabelled ligand ([DeBlasi et al, 1989]).

[14] = parameters: method as in Clive et al, 2001; conditions: at therapeutic plasma concentrations; ref Clive et al, 2001; cited from earlier work
[15] = system: CHO-GRPr cells; test: Chemosensitivity, MTT assay, GRPr cells; assay type: cell-based
Description: as §1, §2

[16] = system: CHO-WT cells; test: Chemosensitivity, MTT assay, wild-type cells; assay type: cell-based; conditions: 48 h, absence of serum; read-out: IC50, inhibition of proliferation (MTT)
Description: as §1, §2

[17] = 48 h, absence of serum, read-out: IC50, inhibition of proliferation (MTT)
[18] = 48 h serum-free, no neuropeptide, read-out: IC50 (MTT), control cells of neuropeptide protection experiment

SMILES	direct mobilisation of intracellular calcium [4]	change in [Ca2+]i on their own [5]	cell growth in aggregation assay [6]	cell growth in aggregation assay [7]	cloning efficiency [8]	colony formation [9]	maximal stimulation of ERK [10]	colony formation [11]	stimulation of ERK [12]	other results
NC(=O)CC[C@@H]1NC(=O)[C@H](Cc2ccccc2)NC(=O)[C@H](Cc2ccc(O)cc2)NC(=O)[C@@H](N)CSSC[C@@H](C(=O)N2CCC[C@H]2C(=O)N[C@@H](CCCN=C(N)N)C(=O)NCC(N)=O)NC(=O)[C@H](CC(N)=O)NC1=O [AVP, arginine vasopressin]										increase in MTT accumulation compared to control cells ([1]; 50 nM neuropeptide, at 40 μg ml^−1 etoposide, 48 h): 92%
CSCC[C@H](NC(=O)[C@H](CC(C)C)NC(=O)[C@H](Cc1c[nH]cn1)NC(=O)CNC(=O)[C@@H](NC(=O)[C@H](C)NC(=O)[C@H](Cc1c[nH]c2ccccc12)NC(=O)[C@H](Cc1c[nH]cn1)NC(=O)[C@H](CC(N)=O)NC(=O)CNC(=O)[C@H](CCCNC(=N)N)NC(=O)[C@@H]1CCCN1C(=O)[C@H](Cc1ccc(O)cc1)NC(=O)[C@H](CCSC)NC(=O)[C@H](CCCCN)NC(=O)[C@@H](NC(=O)[C@H](CC(C)C)NC(=O)[C@@H](NC(=O)[C@@H](NC(=O)CNC(=O)CNC(=O)CNC(=O)[C@H](C)NC(=O)[C@@H]1CCCN1C(=O)[C@H](CC(C)C)NC(=O)[C@@H]1CCCN1C(=O)[C@@H](N)C(C)C)[C@@H](C)O)C(C)C)[C@@H](C)O)C(C)C)C(N)=O [GRP, gastrin-releasing peptide]										change in [Ca2+]i [2]: neither GRP nor AVP produced a significant change; stimulation of ERK phosphorylation [3]: Neither AVP nor GRP produced any stimulation
CC(C)C[C@H](NC(=O)[C@H](CC(C)C)NC(=O)[C@@H](Cc1c[nH]c2ccccc12)NC(=O)[C@H](Cc1ccccc1)NC(=O)[C@@H](Cc1c[nH]c2ccccc12)NC(=O)[C@H](CCC(N)=O)NC(=O)[C@@H](Cc1ccccc1)NC(=O)[C@@H]1CCCN1C(=O)[C@H](CCCCN)NC(=O)[C@@H]1CCCN1C(=O)[C@H](N)CCCNC(=N)N)C(N)=O [SP-D, [D-Arg^1,D-Phe^5,D-Trp^7,9,Leu^11]-substance-P] (H-[dR]PKP[dF]Q[dW]F[dW]LL-NH2; N-terminus and C-terminus assumed)	did not mobilise intracellular calcium directly	no change	able to inhibit cell growth	able to inhibit cell growth	no effect	significantly reduced colony formation	2.8 fold	significantly reduced colony formation	2 fold	concentration at which activation of ERK was evident [10]: 3 µM; effect of pertussis toxin pretreatment on ERK activation by the substance ([10]; 100 ng ml^−1 PTX overnight, bombesin, 10 μM SP-D, 1 μM LPA): completely abolished
CSCC[C@H](NC(=O)[C@H](CC(C)C)NC(=O)[C@@H](Cc1c[nH]c2ccccc12)NC(=O)[C@H](Cc1ccccc1)N(C)C(=O)[C@@H](Cc1c[nH]c2ccccc12)NC(=O)[C@@H](N)CCCNC(=N)N)C(N)=O [SP-G, [Arg^6,D-Trp^7,9,N^mePhe^8]-substance-P (6–11)] (H-R[dW][NMeF][dW]LM-NH2; N-terminus and C-terminus assumed)	did not mobilise intracellular calcium directly	no change	able to inhibit cell growth	able to inhibit cell growth	no effect	significantly reduced colony formation	2.1 fold	significantly reduced colony formation	4.3 fold	selectivity for the V1A receptor [13]: six; toxicity in phase I clinical trial [14]: minimal toxicity; effect of pertussis toxin pretreatment on ERK activation by the substance ([12]; 100 ng ml^−1 PTX overnight, AVP, 20 μM SP-G, 1 μM LPA): completely inhibited
COc1cc([C@@H]2c3cc4c(cc3[C@@H](O[C@@H]3O[C@@H]5CO[C@@H](C)O[C@H]5[C@H](O)[C@H]3O)[C@H]3COC(=O)[C@H]23)OCO4)cc(OC)c1O [etoposide]										IC50 [1, 17]: 14.2 ± 4 µg/mL (≈ 24.1 µM); IC50 [1, 18]: 13 µg/mL (≈ 22.1 µM); IC50 [15, 17]: 8.1 ± 2.3 µg/mL (≈ 13.8 µM); IC50 [15, 18]: 6.3 µg/mL (≈ 10.7 µM); IC50 [16]: 12.4 ± 3.1 µg/mL (≈ 21.1 µM)
